Laboratory results published in EP0430300A2, “Xanthine derivatives, their production and use” (Takeda Chemical Industries, Ltd., priority 1989, dated 1991).

Molecular target: T1, Angiotensin II receptor (Bos taurus, UniProt P25104)
T1 construct: Angiotensin II receptor membrane fractions were prepared from bovine adrenal cortex; from tissue; host or cells: bovine adrenal cortex membrane fraction
T1 sequence (P25104 1-359): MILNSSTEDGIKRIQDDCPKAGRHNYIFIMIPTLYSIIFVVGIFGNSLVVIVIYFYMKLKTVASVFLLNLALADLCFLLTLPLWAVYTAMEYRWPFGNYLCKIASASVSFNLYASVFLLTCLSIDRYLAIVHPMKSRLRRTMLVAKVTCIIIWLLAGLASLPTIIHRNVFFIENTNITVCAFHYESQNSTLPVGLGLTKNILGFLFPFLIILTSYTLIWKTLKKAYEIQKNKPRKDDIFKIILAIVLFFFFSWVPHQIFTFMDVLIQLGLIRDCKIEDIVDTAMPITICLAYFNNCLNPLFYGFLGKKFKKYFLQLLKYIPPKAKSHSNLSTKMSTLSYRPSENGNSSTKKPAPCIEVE
Assay: Inhibitory effect on binding of angiotensin II to angiotensin receptor (125I-AII radioligand binding, membrane fractions)
Settings: A II receptor membrane fraction from bovine adrenal cortex, room temperature, one hour, compound 10^-9-3x10^-5 M, read-out: Inhibitory Activity against Binding of Angiotensin II IC50
Description: Inhibitory assay for the binding of angiotensin II to angiotensin receptor was conducted by modifying a method as described by Douglas et al. (Endocrinology, 102, 685-696 (1978)).
Angiotensin II receptor membrane fractions were prepared from bovine adrenal cortex.
The compound (I) of the present invention (10^-9-3x10^-5 M) and […] (^125I-AII) (1.8kBq/50µl) were added to the A II receptor membrane fraction and incubated at room temperature for one hour. The bound and free ^125I-AII were separated by a filter (Whatman GF/B filter) each other. The radioactivity of ^125I-All bound on the receptor was measured.

Compound | IC50 [nM]
CCCCSc1nc2c(c(=S)n(C)c(=O)n2C)n1Cc1ccc(-c2ccccc2-c2nn[nH]n2)cc1 [Compound 17] | 760
CCCCc1nc2c(c(=O)n(CCCC)c(=O)n2CCCC)n1Cc1ccc(-c2ccccc2-c2nnn[nH]2)cc1 [Compound 27] | 2100
CCOc1nc2c(c(=O)n(CC)c(=O)n2CC)n1Cc1ccc(-c2ccccc2-c2nnn[nH]2)cc1 [Compound 35] | 1100
CCCCc1nc2c(c(=O)n(CCC)c(=O)n2CCCC)n1Cc1ccc(-c2ccccc2-c2nnn[nH]2)cc1 [Compound 28] | 190
CC(C)Cc1nc2c(c(=O)n(C)c(=O)n2C)n1Cc1ccc(-c2ccccc2-c2nn[nH]n2)cc1 [Compound 15] | 150
CCCCc1nc2c(c(=O)n(CCCC)c(=O)n2C)n1Cc1ccc(-c2ccccc2-c2nnn[nH]2)cc1 [Compound 29] | 1000
Cn1c(=O)c2c(nc(Cc3ccccc3)n2Cc2ccc(-c3ccccc3-c3nn[nH]n3)cc2)n(C)c1=O [Compound 10] | 3400
Cn1c(=O)c2c(nc(C3CCCC3)n2Cc2ccc(-c3ccccc3-c3nn[nH]n3)cc2)n(C)c1=O [Compound 9] | 940
Cn1c(=O)c2c(nc(-c3ccccc3)n2Cc2ccc(-c3ccccc3-c3nn[nH]n3)cc2)n(C)c1=O [Compound 7] | 65
CC(Cc1nc2c(c(=O)n(C)c(=O)n2C)n1Cc1ccc(-c2ccccc2-c2nn[nH]n2)cc1)c1ccccc1 (stereo not shown) [Compound 12] | 330
CCCCc1nc2c(c(=O)n(CC)c(=O)n2CC)n1Cc1ccc(-c2ccccc2-c2nnn[nH]2)cc1 [Compound 31] | 110
CCCCc1nc2c(c(=O)n(C)c(=O)n2C)n1Cc1ccc(-c2ccccc2-c2nnn[nH]2)cc1 [Compound 1] | 280
CCCCc1nc2c(c(=O)n(C)c(=S)n2C)n1Cc1ccc(-c2ccccc2-c2nn[nH]n2)cc1 [Compound 13] | 49
CCC=CCc1nc2c(c(=O)n(CCC)c(=O)n2CCC)n1Cc1ccc(-c2ccccc2-c2nnn[nH]2)cc1 [Compound 30] | 380
CCCCc1nc2c(c(=O)n(CC)c(=O)n2CCC)n1Cc1ccc(-c2ccccc2-c2nn[nH]n2)cc1 [Compound 22] | 840
CCCc1nc2c(c(=O)n(C)c(=O)n2C)n1Cc1ccc(-c2ccccc2-c2nn[nH]n2)cc1 [Compound 5] | 170
CCCSc1nc2c(c(=O)n(C)c(=S)n2C)n1Cc1ccc(-c2ccccc2-c2nn[nH]n2)cc1 [Compound 20] | 1500
CCCCSc1nc2c(c(=O)n(CC)c(=O)n2CCC)n1Cc1ccc(-c2ccccc2-c2nnn[nH]2)cc1 [Compound 26] | 2000
Cn1c(=O)c2c(nc(C3CC3)n2Cc2ccc(-c3ccccc3-c3nn[nH]n3)cc2)n(C)c1=O [Compound 8] | 600
CCCCCc1nc2c(c(=O)n(C)c(=O)n2C)n1Cc1ccc(-c2ccccc2C(=O)O)cc1 [Compound 4, 7-(2'-Carboxybiphenyl-4-yl)methyl-8-n-pentyl-1,3-dimethylxanthine] | 62
CCCCc1nc2c(c(=O)n(CCC)c(=O)n2CCC)n1Cc1ccc(-c2ccccc2-c2nn[nH]n2)cc1 [Compound 23] | 1100
CCCCSc1nc2c(c(=O)n(C)c(=O)n2C)n1Cc1ccc(-c2ccccc2-c2nnn[nH]2)cc1 [Compound 34] | 130
CCCSc1nc2c(c(=S)n(C)c(=O)n2C)n1Cc1ccc(-c2ccccc2-c2nn[nH]n2)cc1 [Compound 19] | 1500
CCOc1nc2c(c(=O)n(C)c(=O)n2C)n1Cc1ccc(-c2ccccc2-c2nnn[nH]2)cc1 [Compound 2, 8-Ethoxy-1,3-dimethyl-7-[[2'-(1 H-tetrazole-5-yl)-biphenyl-4-yl)methyl)xanthine] | 49
CCCCSc1nc2c(c(=O)n(C)c(=O)n2C)n1Cc1ccc(-c2ccccc2C(=O)O)cc1 [Compound 33] | 280
CCCCSc1nc2c(c(=O)n(CCC)c(=O)n2CCC)n1Cc1ccc(-c2ccccc2-c2nnn[nH]2)cc1 [Compound 25] | 560
CCCc1nc2c(c(=O)n(CC)c(=O)n2CCC)n1Cc1ccc(-c2ccccc2-c2nn[nH]n2)cc1 [Compound 21] | 560
Cn1c(=O)c2c(nc(CCCCc3ccccc3)n2Cc2ccc(-c3ccccc3-c3nn[nH]n3)cc2)n(C)c1=O [Compound 14] | 330
